In the COVID Moonshot data (paper PMC7615835):
Where “and” joins values, the source holds several entries; their conditions need not be identical. Equal entries are not always repeated.

Tests used:
[1] = target: SARS-CoV-2 Main Protease (SARS-CoV-2) (UniProt P0DTD1)
[2] = in vivo, iv, 0.5 mg/kg

| Structure (SMILES) | CC50 (a549) [nM] | IC50 [1] | AUC(0-inf) ([2]; rat) | AUC(0-t) ([2]; rat) | C0 ([2]; rat) | MRT inf ([2]; rat) | MRT last ([2]; rat) | Vd ([2]; rat) | clearance ([2]; rat) | half-life ([2]; rat) | AUC(0-inf) ([2]; mouse) | AUC(0-t) ([2]; mouse) | C0 ([2]; mouse) | MRT inf ([2]; mouse) | MRT last ([2]; mouse) | Vd ([2]; mouse) | clearance ([2]; mouse) | half-life ([2]; mouse) | CC50 (vero) [nM] |
| --- | --- | --- | --- | --- | --- | --- | --- | --- | --- | --- | --- | --- | --- | --- | --- | --- | --- | --- | --- |
| O=C(Nc1cncc2ccccc12)C1CCOc2c(OCc3ccncc3)cc(Cl)cc21 (configuration not stated) | > 9990 | 3450 nM | – | – | – | – | – | – | – | – | – | – | – | – | – | – | – | – | – |
| O=C(Nc1cncc2ccccc12)C(O)c1ccc(Cl)c(Cl)c1 (configuration not stated) | > 9990 | 2010 nM | – | – | – | – | – | – | – | – | – | – | – | – | – | – | – | – | – |
| O=C(Cc1cccc(Cl)c1)Nc1cnc2ccccn12 | – | 8030 nM | 285 ng·h/mL and 249 ng·h/mL | 284 ng·h/mL and 247 ng·h/mL | 663 ng/mL and 588 ng/mL | 26.8 min and 26.9 min | 26.4 min and 25.6 min | 0.788 L/kg and 0.895 L/kg | 29.2 mL/min/kg and 33.5 mL/min/kg | 25.6 min and 22.8 min | – | – | – | – | – | – | – | – | – |
| O=C(Cc1cccc(Cl)c1)Nc1cnccc1C1CC1 | – | 7170 nM | 77 ng·h/mL and 54.5 ng·h/mL | 74.1 ng·h/mL and 53.2 ng·h/mL | 260 ng/mL and 176 ng/mL | 20.7 min and 17.8 min | 15.4 min and 18.5 min | 1.92 L/kg and 3.14 L/kg | 108 mL/min/kg and 153 mL/min/kg | 12.5 min and 15.8 min | – | – | – | – | – | – | – | – | – |
| CS(=O)(=O)N1Cc2ccc(Cl)cc2C(C(=O)Nc2cncc3ccccc23)C1 (configuration not stated) | – | – | – | – | – | – | – | – | – | – | 125 ng·h/mL and 139 ng·h/mL | 124 ng·h/mL and 138 ng·h/mL | 399 ng/mL and 588 ng/mL | 21.6 min and 18.2 min | 20.8 min and 17.6 min | 1.4 L/kg and 1.06 L/kg | 64.9 mL/min/kg and 59 mL/min/kg | 16.7 min | – |
| C=CC(=O)N(C(=O)[C@H]1CCOc2ccc(Cl)cc21)c1cncc2ccccc12 (stereo in doubt) | > 9990 | – | – | – | – | – | – | – | – | – | – | – | – | – | – | – | – | – | > 9990 |
| O=C(Nc1cncc2cc(Cl)ccc12)C1CCS(=O)(=O)c2ccc(Cl)cc21 (configuration not stated) | – | 838 nM | 2140 ng·h/mL and 2940 ng·h/mL | 1940 ng·h/mL and 2700 ng·h/mL | 769 ng/mL and 1200 ng/mL | 193 min and 199 min | 148 min and 151 min | 0.774 L/kg and 0.556 L/kg | 3.9 mL/min/kg and 2.9 mL/min/kg | 141 min and 133 min | – | – | – | – | – | – | – | – | – |
| CNS(=O)(=O)N1Cc2ccc(Cl)cc2C(C(=O)Nc2cncc3ccccc23)C1 (configuration not stated) | – | 149 nM | 185 ng·h/mL and 255 ng·h/mL and 157 ng·h/mL | 183 ng·h/mL and 254 ng·h/mL and 155 ng·h/mL | 507 ng/mL and 850 ng/mL and 519 ng/mL | 31.6 min and 38.9 min and 23.9 min | 36.1 min and 30.6 min and 22.1 min | 1.75 L/kg and 1.07 L/kg and 1.5 L/kg | 45.1 mL/min/kg and 33.3 mL/min/kg and 62.7 mL/min/kg | 41 min and 32.2 min and 20 min | – | – | – | – | – | – | – | – | – |
| C=CC(=O)N(C(=O)C1CCOc2ccc(Cl)cc21)c1cncc2ccccc12 (configuration not stated) | > 10000 | – | – | – | – | – | – | – | – | – | – | – | – | – | – | – | – | – | – |
| Cc1cccc2cncc(NC(=O)Cc3cccc(Cl)c3)c12 | – | 331 nM | 206 ng·h/mL and 112 ng·h/mL | 203 ng·h/mL and 111 ng·h/mL | 934 ng/mL and 490 ng/mL | 21.8 min and 18.2 min | 16.2 min and 19.9 min | 0.737 L/kg and 1.83 L/kg | 40.4 mL/min/kg and 84.8 mL/min/kg | 24.9 min and 34.8 min | – | – | – | – | – | – | – | – | – |
| Cc1nnc(CN2Cc3ccc(Cl)cc3C(C(=O)Nc3cncc4ccccc34)C2)[nH]1 (configuration not stated) | – | 750 nM | 143 ng·h/mL and 182 ng·h/mL | 142 ng·h/mL and 178 ng·h/mL | 621 ng/mL and 588 ng/mL | 28.7 min and 20.8 min | 19.7 min and 25.8 min | 1.21 L/kg and 1.32 L/kg | 58.3 mL/min/kg and 46.8 mL/min/kg | 18.7 min and 22.1 min | – | – | – | – | – | – | – | – | – |
| Cc1cc2c(NC(=O)C3CCOc4ccc(Cl)cc43)cncc2s1 (configuration not stated) | – | 228 nM | 122 ng·h/mL and 130 ng·h/mL | 118 ng·h/mL and 128 ng·h/mL | 342 ng/mL and 378 ng/mL | 26.3 min and 28.9 min | 25.1 min and 24.1 min | 1.76 L/kg and 1.52 L/kg | 60.8 mL/min/kg and 58 mL/min/kg | 22.4 min and 25 min | – | – | – | – | – | – | – | – | – |
| O=C(Cc1cccc(Cl)c1)Nc1cnn2ccccc12 | – | 11300 nM | 209 ng·h/mL and 179 ng·h/mL | 201 ng·h/mL and 176 ng·h/mL | 652 ng/mL and 621 ng/mL | 31.1 min | 25.4 min and 27.5 min | 1.24 L/kg and 1.44 L/kg | 39.8 mL/min/kg and 46.6 mL/min/kg | 29.4 min and 33.7 min | – | – | – | – | – | – | – | – | – |
| CS(=O)(=O)N1Cc2ccc(Cl)cc2C(C(=O)Nc2cncc3cccc(F)c23)C1 (configuration not stated) | – | 951 nM | 110 ng·h/mL and 136 ng·h/mL | 107 ng·h/mL and 134 ng·h/mL | 332 ng/mL and 376 ng/mL | 25.8 min and 25.9 min | 22.9 min and 23.5 min | 1.57 L/kg and 1.26 L/kg | 60.6 mL/min/kg and 48.6 mL/min/kg | 23.9 min and 20.4 min | – | – | – | – | – | – | – | – | – |
| O=C(Nc1cncc2ccncc12)C1CCNc2cc(Cl)c(Cl)cc21 (configuration not stated) | > 9990 | – | – | – | – | – | – | – | – | – | – | – | – | – | – | – | – | – | – |
| O=C1CC(C(=O)Nc2cncc3ccccc23)c2cc(Cl)c(Cl)cc2N1 (configuration not stated) | – | 196 nM and 356 nM | – | – | – | – | – | – | – | – | 199 ng·h/mL and 230 ng·h/mL | 197 ng·h/mL and 226 ng·h/mL | 268 ng/mL and 390 ng/mL | 44.9 min and 49.9 min | 42.4 min and 45.4 min | 1.88 L/kg and 1.81 L/kg | 41.9 mL/min/kg and 36.2 mL/min/kg | 34.4 min and 43.6 min | – |
| CS(=O)(=O)c1ccc2cncc(NC(=O)C3CNC(=O)c4ccc(Cl)cc43)c2c1 (configuration not stated) | – | 2740 nM | 177 ng·h/mL and 160 ng·h/mL | 175 ng·h/mL and 157 ng·h/mL | 636 ng/mL and 540 ng/mL | 25.6 min and 22 min | 20.7 min and 22.8 min | 1.08 L/kg and 1.38 L/kg | 49 mL/min/kg and 54.2 mL/min/kg | 19.3 min and 23.4 min | – | – | – | – | – | – | – | – | – |
| COc1cccc2[nH]c(=O)cc(C(=O)NCCOc3ccccc3OCC3CC3)c12 | > 10000 | – | – | – | – | – | – | – | – | – | – | – | – | – | – | – | – | – | – |
| Cc1c(N)cncc1NC(=O)Cc1cccc(Cl)c1 | – | 4220 nM | 210 ng·h/mL and 187 ng·h/mL | 209 ng·h/mL and 185 ng·h/mL | 485 ng/mL and 446 ng/mL | 28.8 min and 30.5 min | 29.5 min and 27.3 min | 1.21 L/kg and 1.28 L/kg | 39.8 mL/min/kg and 44.6 mL/min/kg | 28.2 min and 25 min | – | – | – | – | – | – | – | – | – |
| N#CCC(=O)N1Cc2ccc(Cl)cc2C(C(=O)Nc2cncc3ccccc23)C1 (configuration not stated) | – | 204 nM | 128 ng·h/mL and 148 ng·h/mL | 124 ng·h/mL and 144 ng·h/mL | 404 ng/mL and 370 ng/mL | 28.7 min and 29.3 min | 24.5 min and 25.6 min | 1.61 L/kg and 1.36 L/kg | 54.8 mL/min/kg and 47.4 mL/min/kg | 25.4 min and 22 min | – | – | – | – | – | – | – | – | – |
| O=C(Cc1cccc(Cl)c1)Nc1cncc2c(F)cccc12 | – | 890 nM | 140 ng·h/mL and 138 ng·h/mL | 139 ng·h/mL and 136 ng·h/mL | 515 ng/mL and 498 ng/mL | 19.8 min and 20.1 min | 19.1 min and 18.7 min | 1.02 L/kg | 50.8 mL/min/kg and 51.6 mL/min/kg | 17.4 min and 18.2 min | – | – | – | – | – | – | – | – | – |
| COC(=O)N1Cc2ccc(Cl)cc2C(C(=O)Nc2cncc3ccccc23)C1 (configuration not stated) | – | 224 nM | 152 ng·h/mL and 94.2 ng·h/mL | 150 ng·h/mL and 93.6 ng·h/mL | 411 ng/mL and 345 ng/mL | 20.4 min and 24.1 min | 22.5 min and 19.4 min | 1.32 L/kg and 1.82 L/kg | 54.9 mL/min/kg and 88.6 mL/min/kg | 20 min and 18.2 min | – | – | – | – | – | – | – | – | – |
